Laboratory results taken from patent publication US4066772A, “1,3-Dihydro-1-[3-(1-piperidinyl)propyl]-2H-benzimidazol-2-ones and related compounds” (Janssen Pharmaceutica N.V., priority 1976, dated 1978).

Tested on: apomorphine-induced vomiting in dogs
Test: Apomorphine-induced vomiting test in dogs (antiemetic activity, subcutaneous)
Assay type: in vivo, beagle dogs
Conditions: Canis lupus familiaris, sc, 1 h, read-out: ED50 (dose which protects 50% of the animals from emesis), Table I

Compound	ED50 [mg/kg]
O=C1NCN(c2ccc(F)cc2)C12CCN(CCCn1c(=O)[nH]c3ccccc31)CC2 [L=H, R1=H, R4=H, R5=4-F]	0.04
O=C1NCN(c2cccc(C(F)(F)F)c2)C12CCN(CCCn1c(=O)[nH]c3ccccc31)CC2 [L=H, R1=H, R4=H, R5=3-CF3, 8-[3-(2,3-dihydro-2-oxo-1H-benzimidazol-1-yl)propyl]-1-[3-(trifluoromethyl)phenyl]-1,3,8-triazaspiro[4,5]decan-4-one]	0.025
C=CCn1c(=O)n(CCCN2CCC3(CC2)C(=O)NCN3c2ccccc2)c2ccccc21 [L=CH2CHCH2, R1=H, R4=H, R5=H, 8-{3-[1,3-dihydro-2-oxo-3-(2-propenyl)-2H-benzimidazol-1-yl]propyl}-1-phenyl-1,3,8-triazaspiro[4,5]decan-4-one]	0.25
O=C1NCN(c2ccccc2)C12CCN(CCCn1c(=O)[nH]c3ccccc31)CC2 [L=H, R1=H, R4=H, R5=H, 8-[3-(1,3-dihydro-2-oxo-2H-benzimidazol-1-yl)propyl]-1-phenyl-1,3,8-triazaspiro[4,5]decan-4-one]	0.03
Cc1ccc2c(c1)[nH]c(=O)n2CCCN1CCC2(CC1)C(=O)NCN2c1ccccc1 [L=H, R1=5-CH3, R4=H, R5=H, 8-[3-(1,3-dihydro-5-methyl-2-oxo-2H-benzimidazol-1-yl)propyl]-1-phenyl-1,3,8-triazaspiro[4,5]decan-4-one]	0.06
O=C1NCN(c2ccccc2)C12CCN(CCCn1c(=O)[nH]c3cc(Cl)ccc31)CC2 [L=H, R1=5-Cl, R4=H, R5=H, 8-[3-(5-chloro-1,3-dihydro-2-oxo-2H-benzimidazol-1-yl)propyl]-1-phenyl-1,3,8-triazaspiro[4,5]decan-4-one]	0.05
O=C1NCN(c2ccc(F)cc2)C12CCN(CCCn1c(=O)[nH]c3cc(Cl)ccc31)CC2 [L=H, R1=5-Cl, R4=H, R5=4-F, 8-[3-(5-chloro-1,3-dihydro-2-oxo-2H-benzimidazol-1-yl)propyl]-1-(4-fluorophenyl)-1,3,8-triazaspiro[4,5]decan-4-one]	0.015
Cn1c(=O)n(CCCN2CCC3(CC2)C(=O)NCN3c2ccccc2)c2ccccc21 [L=CH3, R1=H, R4=H, R5=H, 8-[3-(1,3-dihydro-3-methyl-2-oxo-2H-benzimidazol-1-yl)propyl]-1-phenyl-1,3,8-triazaspiro[4,5]-decan-4-one]	0.08
CN1CN(c2ccccc2)C2(CCN(CCCn3c(=O)[nH]c4ccccc43)CC2)C1=O [L=H, R1=H, R4=CH3, R5=H, 8-[3-(1,3-dihydro-2-oxo-2H-benzimidazol-1-yl)propyl]-3-methyl-1-phenyl-1,3,8-triazaspiro[4,5]decan-4-one]	0.015

Same assay, conditions: Canis lupus familiaris, sc, 1 h, read-out: ED50 (dose which protects 50% of the animals from emesis), Table II

Compound	ED50 [mg/kg]
O=c1[nH]c2ccccc2n1CCCN1CCC(n2c(=O)[nH]c3cc(Cl)ccc32)CC1 [5-chloro-1-{1-[3-(1,3-dihydro-2-oxo-2H-benzimidazol-1-yl)propyl]-4-piperidinyl}-1,3-dihydro-2H-benzimidazol-2-one]	0.01

Same assay, conditions: Canis lupus familiaris, sc, 1 h, read-out: ED50 (dose which protects 50% of the animals from emesis), Table III

Compound	ED50 [mg/kg]
O=c1[nH]c2ccccc2n1CCCN1CCC(O)(c2ccc(Cl)cc2)CC1 [L=H, R8=4-Cl, R9=H, 1-{3-[4-(4-chlorophenyl)-4-hydroxy-1-piperidinyl]-propyl}-1,3-dihydro-2H-benzimidazol-2-one]	0.06
C=CCn1c(=O)n(CCCN2CCC(O)(c3ccc(Cl)cc3)CC2)c2ccccc21 [L=CH2CHCH2, R8=4-Cl, R9=H, 1-{3-[4-(4-chlorophenyl) 4-hydroxy-1-piperidinyl]propyl}-1,3-dihydro-3-(2-propenyl)-2-H-benzimidazol-2-one]	0.5
O=c1[nH]c2ccccc2n1CCCN1CCC(O)(c2ccc(Cl)c(C(F)(F)F)c2)CC1 [L=H, R8=4-Cl, R9=3-CF3, 1-[3-{4-[4-chloro-3-(trifluoromethyl)phenyl]-4-hydroxy-1-piperidinyl}propyl]-1,3-dihydro-2H-benzimidazol-2-one]	0.015

Same assay, conditions: Canis lupus familiaris, sc, 1 h, read-out: ED50 (dose which protects 50% of the animals from emesis), Table IV

Compound	ED50 [mg/kg]
O=C1NCN(c2ccccc2)C12CCN(CCCn1cnc3ccccc31)CC2	0.25

Same assay, conditions: Canis lupus familiaris, sc, beagle dogs, apomorphine 0.31 mg/kg s.c. 1 hour after compound; read-out: ED50 (dose which protects 50% of the animals from emesis), Table II

Compound	ED50 [mg/kg]
O=c1[nH]c2ccccc2n1CCCN1CC=C(n2c(=O)[nH]c3ccccc32)CC1 [L=H, R1=H, R2=H, R3=H, ring drawing 47, R7=H, 1-{3-[3,6-dihydro-4-(1,3-dihydro-2-oxo-2H-benzimidazol-1-yl)-1-(2H)-pyridinyl]propyl}-1,3-dihydro-2H-benzimidazol-2-one]	0.04

Same assay, conditions: Canis lupus familiaris, sc, beagle dogs, apomorphine 0.31 mg/kg s.c. 1 hour after compound; read-out: ED50 (dose which protects 50% of the animals from emesis), Table IV

Compound	ED50 [mg/kg]
O=c1[nH]c2cc(Cl)ccc2n1C1CCN(CCCn2c(=S)[nH]c3ccccc32)CC1	0.004
O=c1[nH]c2ccccc2n1CCCN1CCC(n2c(=S)[nH]c3ccccc32)CC1	0.025
O=c1[nH]c2ccccc2n1CCCN1CCC(n2c(=S)[nH]c3cc(Cl)ccc32)CC1	0.004
